Test results taken from patent publication US20170020798A1, “HESPERIDIN-CONTAINING COMPOSITIONS AND METHODS FOR TREATMENT OF SKIN DISORDERS” (The Regents of the University of California, priority 2015, published 2017).
Where a name gives a salt, the structure may show the parent alone.

How the values were obtained:
[1] = cited from earlier work
aged murine skin = test: Epidermal function after topical hesperidin in aged mice (TEWL, barrier recovery, SC hydration, skin surface pH); format: in vivo, mouse
Method: (§1) All animal procedures were approved by the Animal Studies Subcommittee (IACUC) of the San Francisco Veterans Administration Medical Center and performed in accordance with their guidelines. Since hesperidin is not soluble in 100% ethanol, 70% ethanol was used as vehicle. Since the turnover time for […] is about 9.5 days in normal young mice, we chose to treat aged mice for 9 days. Both flanks of 12-15 month old mice were treated topically with 60 μl of 2% hesperidin or 70% ethanol twice daily for 9 days. Basal epidermal permeability barrier function was assessed by measuring transepidermal water loss (TEWL) using TM300 connected to MPA5 (C&K, Cologne, Germany). For barrier recovery, TEWL was measured using an electrolytic water analyzer (Meeco, Warrington, Pa.) at 0, 2 and 4 hours after tape stripping (10-fold increase in TEWL), and percent barrier recovery was calculated.

[2] = tested on: GC-induced epidermal side effects; test: Hesperidin co-applications with glucocorticoid (GC): prevention of GC-induced epidermal side effects; format: in vivo
aged mouse epidermis = test: Q-PCR for mRNA expression in aged mouse epidermis; format: in vivo
young normal murine skin = test: Topical hesperidin on young normal murine skin; format: in vivo
[3] = Solubility of hesperidin in ethanol; format: physicochemical; details: 100% ethanol
aged mice = test: Cholesterol-dominant lipid mixture plus hesperidin on aged mice; format: in vivo, mouse; details: 2% hesperidin added to the triple lipid mixture, 18-month old mice, twice daily for 7 days
Method: The composition includes a cholesterol-dominant lipid mixture plus hesperidin for the use on aged mice: 18-Month old mice were divided into groups of untreated, lipid mixture+vehicle (70% ethanol) treated, and lipid mixture+2% hesperidin treated. Mice are treated twice daily for 7 days. All measurements are carried out with a MPA5 physiology monitor. Lipid mixture contained cholesterol, fatty acid and ceramide (3:1:1 molar ratio, with cholesterol at 3 moles) at a concentration of 0.74 wt %. Data are normalized to untreated control, setting untreated as 100%.

aged epidermis [4] = test: Gross appearance, histology and PCNA staining of aged mouse epidermis; format: in vivo; details: aged mice, 2% hesperidin topically twice daily for 9 days; NS vs. vehicle
Method: as §1
Immunohistochemical staining for assessing changes in epidermal differentiation was performed as follows. Briefly, 5 μm paraffin sections were incubated with the primary antibodies (Covance, Emeryville, Calif.) overnight at 4° C. […] Staining was detected with ABC-peroxidase kit from Vector Lab (Burlingame, Calif.). Sections were examined with a Zeiss fluorescence microscope (Jena, Germany) and digital images were captured with AxioVision software (Carl Zeiss Vision, Munich, Germany).

murine skin = test: Epidermal mRNA levels of antioxidant enzymes after topical hesperidin; format: in vivo; details: topical hesperidin applications
[5] = tested on: keratinocytes isolated from adult human (donor aged 60-65 year old); test: Q-PCR for mRNA expression in adult human keratinocyte cultures; format: cell-based; details: 0.02% hesperidin
Method: Second-passage keratinocytes isolated from adult human (donor aged 60-65 year old) were cultured in serum-free keratinocyte growth medium containing 0.07 mM calcium (Clonetics, San Diego, Calif.). Cells at 60%-70% confluence were switched to a medium containing 1.2 mM calcium and treated with either 0.02% hesperidin or vehicle alone (0.02% ethanol). After 24 and 48 hrs of treatment, keratinocytes were collected for Q-PCR analysis.
Total RNA was isolated from cultured human keratinocytes using TRI Reagent (Sigma). First strand cDNA was synthesized from 1 ug of total RNA with the iScript cDNA Synthesis Kit (Bio-Rad, Hercules, Calif.). The real-time PCR contained 20 ng of reversed transcribed total RNA, 450 nM forward and reverse primers, and 10 μl of 2× LightCycler 480 SYBR Green I Master in a final volume of 20 μl in 96-well plates using Mx3000PTM Real-time PCR System (Stratagene, La Jolla, Calif.). Quantification was performed by the comparative CT method with 36B4 or Cyclophilin A used for normalization. The primers for lipid synthetic enzymes such as 3-hydroxy-3-methyl-glutaryl-CoA reductase (HMGCoA), serine-palmitoyl transferase 1 (SPT1), fatty acid synthase (FAS), lipid transporters (ATP-binding cassette A12 (ABCA12)), mouse beta defensin 3 (mBD3), sodium-hydrogen exchanger 1 (NHE1), secretary phospholipase A2g2f (sPLA2g2f), filaggrin, involucrin, loricrin and Cyclophilin A are listed in Primer Table 2. Relative expression of the mRNAs compared to control mRNA was calculated. Data are expressed as percentage of control (as 100%).

aged epidermis [6] = test: Lamellar body density and secretion (electron microscopy); format: in vivo, mouse
Text: Skin biopsies from both vehicle and hesperidin-treated mice were taken for electron microscopy. Briefly, samples were minced to <0.5 mm^3, fixed in modified Karnovsky's fixative overnight, and post-fixed in either 0.2% ruthenium tetroxide or 1% aqueous osmium tetroxide, containing 1.5% potassium ferrocyanide. After fixation, all samples were dehydrated in a graded ethanol series, and embedded in an Epon-epoxy mixture. Ultrathin sections were examined, with or without further contrasting with lead citrate, in a Zeiss 10A electron microscope (Carl Zeiss, Thornwood, N.J.), operated at 60 kV.
LB numbers were determined in granular cells two to three layers below the stratum granulosum-stratum corneum (SG-SC) junction as previously described. The number of LBs was counted at 4800 magnification using a calibrated grid. Total 10 random pictures from each biopsy sample were assessed. For quantification of LB secretion, number of LB protrusion at the SG-SC junction were measured at a magnification of 5800 and correlated with the length of the bottom surface of the first SC layer on 10 random images at 5800 magnification.

normal epidermis = details: applied to normal epidermis; cited from earlier work
[7] = hesperidin co-applications with GC
[8] = aged epidermis, topical hesperidin, Q-PCR
[9] = aged mouse epidermis, topical hesperidin
[10] = aged mouse epidermis, topical hesperidin, Q-PCR
[11] = aged human keratinocyte cultures

## CC(C)CCC[C@@H](C)[C@H]1CC[C@H]2[C@@H]3CC=C4C[C@@H](OS(=O)(=O)O)CC[C@]4(C)[C@H]3CC[C@]12C [CSO4, Cholesterol sulfate]
[1]
  pKa: 3.1

## COc1ccc([C@@H]2CC(=O)c3c(O)cc(O[C@@H]4O[C@H](CO[C@@H]5O[C@@H](C)[C@H](O)[C@@H](O)[C@H]5O)[C@@H](O)[C@H](O)[C@H]4O)cc3O2)cc1O [hesperidin, (2S)-5-hydroxy-2-(3-hydroxy-4-methoxyphenyl)-7-[(2S,3R,4S,5S,6R)-3,4,5-trihydroxy-6-[[(2R,3R,4R,5R,6S)-3,4,5-trihydroxy-6-methyloxan-2-yl]oxymethyl]oxan-2-yl]oxy-2,3-dihydrochromen-4-one]
Aged murine skin; aged mice, 9 days topical hesperidin, compared with vehicle-treated skin
  skin surface pH: significantly declined
Aged murine skin; aged mice, 9 days topical hesperidin, compared with vehicle-treated skin, within normal range of young skin
  basal transepidermal water loss rates: increased slightly
Aged murine skin; aged mice, after 9 days of topical hesperidin, no different from vehicle
  baseline SC hydration: 58.80±2.27
Aged murine skin; at both 2 and 4 hours after acute barrier disruption of aged skin
  barrier recovery: significantly accelerated
[2]; co-applications of hesperidin with GC
  GC-induced inhibition of epidermal proliferation: prevented
[2]; [7]
  GC-induced impairment of epidermal permeability barrier homeostasis: prevented
  GC-induced impairment of stratum corneum (SC) integrity: prevented
  epidermal β-glucocerebrosidase activity: enhanced
  filaggrin expression: significant increase
  lamellar bilayer maturation: accelerated
[2]; hesperidin co-applications with topical GC
  GC-induced impairment of SC acidification / changes in skin surface pH: prevented
Aged mouse epidermis; aged epidermis
  Nrf2 expression: upregulates
Aged mouse epidermis; [8]
  NHE1 mRNA levels: marked elevation
  sPLA2g2f mRNA levels: marked elevation
Aged mouse epidermis; aged mice, hesperidin treatment
  epidermal mBD3 mRNA levels: significantly increased
Aged mouse epidermis; [9]
  ABCA12 mRNA expression: marked increase
  filaggrin mRNA levels: significantly increased
  loricrin mRNA levels: significantly increased
Aged mouse epidermis; [10]
  FAS mRNA levels: significantly increased
  HMGCoA mRNA levels: significantly increased
  SPT1 mRNA levels: significantly increased
Young normal murine skin
  epidermal differentiation: stimulation
  epidermal proliferation: stimulation
  lamellar body (lipid) secretion: enhanced
  skin barrier recovery after acute barrier abrogation: significantly accelerated
[3]
  solubility: not soluble
Aged mice
  pH: significantly improved (lowered)
Aged epidermis [4]
  PCNA-positive cells per cm epidermal length: 2.45±0.13 cells per cm epidermal length
Murine skin
  epidermal glutathione reductase mRNA levels: increased
  epidermal superoxide dismutase mRNA levels: increased
[5]; adult keratinocyte cultures
  ABCA12 mRNA expression: marked increase
  filaggrin mRNA levels: increased
  involucrin mRNA levels: increased
  loricrin mRNA levels: increased
[5]; [11]
  CAMP/LL37 expression: markedly upregulated
  constitutive hBD2 mRNA expression: no changes
  hBD3 mRNA: markedly upregulated
Aged epidermis [6]; aged epidermis after hesperidin treatment
  density of lamellar bodies: did not increase
Aged epidermis [6]; aged epidermis, topical hesperidin treatment, quantitative analyses
  extent of lamellar body secretion: enhanced

## CC[C@H](C)C(=O)O[C@H]1C[C@@H](C)C=C2C=C[C@H](C)[C@H](CC[C@@H]3C[C@@H](O)CC(=O)O3)[C@H]21 [lovastatin]
Normal epidermis
  effect on barrier function: produces a barrier defect
